Measured values from patent US9283257B2, “Compositions comprising solanum tuberosum for lowering cytosolic NADH level to mimic calorie restriction” (Nox Technologies, Inc., priority 2009, dated 2016).
Read-outs that look alike come from different tables or passages of the source.

System: NADH levels in yeast
Test: yeast NADH autofluorescence assay
Assay type: cell-based, Saccharomyces cerevisiae
Source text: Reduced forms of NAD(P)H show fluorescence with peaks of excitation and emission in the regions of 340 and 450 nm, respectively, that are used to monitor changes in cytosolic NAD(P)H levels. Because oxidized forms of these pyridine nucleotides have minimal fluorescence at this wavelength, a specific strain of Saccharomyces cerevisiae is used as the primary indicator and the assay is set up in a […] microtiter plate format. Fluorescence measurements are taken with an automated plate reader after 2 h of incubation in the presence of at least three log dilutions of the candidate calorie restriction mimic under investigation.
A 10 mL culture of S. cerevisiae (wild type-BY4741, available from American Type Culture Collection, Manassas, Va., ATCC Number 201388) Genotype/ORF/Gene MATa his3delta1 leu2delta0 met15delta0 ura3delta0. The yeast cells are grown overnight in Yeast Extract Peptone Dextrose (YEPD) liquid medium at 30 C with shaking. OD600 of the culture should be between 0.800 and 1.000 prior to assay usage. To remove unwanted autofluorescence, the medium components are removed by the following process.
Aliquots of the yeast culture are transferred to individual 1 mL micro-centrifuge tubes, and the yeast are pelleted in a bench-top centrifuge by spinning at 1000 RPM for 10 min. Excessive centrifugation speeds (over 1000 rpm) are not used because they could damage the yeast; and live yeast are required for the assay. The medium is decanted, and the yeast are resuspended in an equal volume of 1× phosphate buffered saline (137 mM NaCl, 2.7 mM KCl, 10 mM Na2HPO4, 1.76 mM KH2PO4, pH 7.4) and 7.5 mM glucose (PBSG). […] This preparation of yeast is used in the subsequent auto-fluorescence measurements at an optical density (bulk turbidity) at 600 nm between 0.8 and 1.0.
For fluorescence reading samples are added to a black 96 well cell culture plate. […] A single well of each compound or preparation 5 μL+100 μL of 1×PBSG should be added to account for the fluorescence due to additive.
Experiments are conducted using a Fluoroskan II (Titer-Tek) fluorescent plate reader, which is controlled by Genesis software v 2.0 and used in accordance with the manufacturer' instructions. […] These parameters include a) type—whether the measurement is a single measurement or series of measurement over a given time (kinetic), b) excitation and emission wavelengths (for NADH autofluorescence the excitation wavelength is 340 nm and the emission wavelength is 450 nm.) c) interval at which measurements should be taken (every 20 seconds is sufficient) d) duration of each reading which is set at 5 sec per well, and e) the duration of the measurement which is set to 1 hr. […]

CC1(C)CCC2=C(O1)c1ccccc1C(=O)C2=O [β-Lapachrone]
EC50 (yeast system; read-out: Concentration of known stimulators of NADH oxidation to increase NADH consumption by 50% in the yeast system): 40 µM

O=C(O)CC(=O)C(=O)O [Oxaloacetic acid]
EC50 (Saccharomyces cerevisiae, read-out: Concentration of known stimulators of NADH oxidation to increase NADH consumption by 50% in the yeast system): 20 µM

O=CC[C@@H](O)[C@H](O)[C@H](O)CO [2-Deoxyglucose, 2-deoxy-D-glucose]
EC50 (Saccharomyces cerevisiae; read-out: Concentration of known stimulators of NADH oxidation to increase NADH consumption by 50% in the yeast system): 2000 µM
cytosolic NADH levels (glucose of the yeast culture medium replaced with 2DG): reduced
